Measurements: paper PMC5450539, “Anti-Inflammatory Activity and Structure-Activity Relationships of Brominated Indoles from a Marine Mollusc” (Marine Drugs, 2017)
Several values for one entry are separate records, joined by “and”; a condition that tells them apart may be missing. Identical values can stand only once. Like-named read-outs stand apart in the source and are kept apart here.

What was measured:
NFκB translocation = experiment: Assessment of NFκB translocation in LPS-stimulated RAW264.7; format: cell-based; details: Mus musculus, RAW264.7, 40 µg/mL, LPS-stimulated RAW264.7, relative to DMSO + LPS
Protocol: This assay was performed according to the published protocol in Olivera et al.. RAW264.7 mouse macrophages were seeded at 400,000 cells/well in 800 μL in 4-well chambered slides and incubated overnight. The cells were then incubated with the test samples (40 μg/mL HBG extract, 6-bromoisatin, or 6-bromoindole) for 1 h prior to stimulation with LPS (700 ng/mL) for 30 min. After stimulation, the cells were washed with PBS and fixed with 3.7% paraformaldehyde for 15 min. […] The cells were washed with PBS and incubated with rabbit anti-p65 NFκB antibody (1:500) and goat anti-mouse IκB (1:500) overnight at 4 °C. The following day, the cells were washed again three times with PBS and incubated for 1 h with goat-anti-rabbit IgG conjugated with Alexa Fluor 594 (1:1000) and donkey anti-mouse IgG conjugated with Alexa fluor 488 (1:1000) at room temperature. Finally, the cells were washed with PBS then mounted with Prolong mounting media containing DAPI before visualising using the Olympus Flouview FVi10 confocal microscope (Olympus, Tokyo, Japan). Using ImageJ (v1.50i, National Institutes of Health, Bethesda, MD, USA), an outline was drawn around each nucleus by adjusting the colour threshold of DAPI. Mean fluorescence inside the nucleus was measured, along with several adjacent background readings. The total corrected cellular fluorescence (TCCF) was calculated by applying the equation TCCF = integrated density − (area of selected cell × mean fluorescence of background readings). This TCCF was then used to calculate the %inhibition of the NFκB translocation against the positive control where the cells were treated with LPS in the presence of the Vehicle (0.35% DMSO v/v) in Microsoft Office Excel 2013 (Redmond, WA, USA).

TNFα = test system: TNFα; parameters: method as in Matheus et al. [37]; details: minimum effective dose not established; ref Matheus et al. [37]; cited from earlier work
NO production = test system: NO production; parameters: method as in Matheus et al. [37]; details: LPS and interferon-γ induced, RAW264.7; ref Matheus et al. [37]; cited from earlier work
[1] = test system: nitric oxide (NO) production; experiment: NO inhibition assay (Greiss) in LPS-stimulated RAW264.7 macrophages; format: cell-based, mouse; details: for IC50: Mus musculus
Protocol: RAW264.7 macrophages were incubated 1 h with extracts/compounds prior to the addition of LPS. […] Then, 20 h after the addition of LPS, the supernatant was collected. […] The plates were incubated for 15–20 min in the dark, then read at 550 nm wavelength on an Anthos Zenyth 200rt (Anthos Labtec Instruments). Sodium nitrite was used to prepare a standard curve to quantify the nitrite from the absorbance readings in this assay. All data were processed in Microsoft Office Excel 2013 (MS) first to obtain descriptive statistics. One-way Analysis of Variance (ANOVA) followed by Dunnett’s multiple comparisons test was performed using GraphPad Prism version 6.00 for Windows (GraphPad Software, La Jolla, CA, USA, www.graphpad.com), with p < 0.05 considered significant.

TNFα production = experiment: TNF-alpha inhibition assay (ELISA) in LPS-stimulated RAW264.7 macrophages; format: cell-based, mouse; details: for IC50: Mus musculus
Protocol: The amount of TNFα was quantified in cell culture media using murine TNFα ELISA kits (BD bioscience). In brief, the RAW264.7 mouse macrophages (6 × 10^5 cells/mL) were stimulated with LPS (100 ng/mL) 1 h after treatment with several concentrations of extracts (0.08–50 μg/mL). After 18 h, the supernatant was collected and TNFα production was measured by reading the absorbance at 450 nm wavelength on an Anthos Zenyth 200rt microplate reader (Anthos Labtech Instruments). Dexamethasone at a concentration of 2.5 μM was used as a positive control, with a negative control of 0.35% DMSO.
All data were processed in Microsoft Office Excel 2013 (MS) first to obtain descriptive statistics. One-way Analysis of Variance (ANOVA) followed by Dunnett’s multiple comparisons test was performed using GraphPad Prism version 6.00 for Windows (GraphPad Software, La Jolla, CA, USA, www.graphpad.com), with p < 0.05 considered significant. The inhibitory concentration responsible for a 50% reduction in cell viability or production of inflammatory markers (IC50) was calculated using the regression analysis, Probit in SPSS v21.

[2] = test system: 3T3 ccl-92 mouse fibroblast; experiment: Crystal violet cytotoxicity assay, 3T3 ccl-92; format: cell-based; details: 24 h incubation; max test concentration 50 µg/mL; > = <50% reduction in viability at max
Protocol: All extract/compounds were dissolved in DMSO and tested at 5 different concentrations of 50, 10, 2, 0.4, and 0.08 μg/mL for all anti-inflammatory assays unless otherwise noted. The final concentration of DMSO was 0.35% v/v for extracts and compounds. All samples were tested in triplicate at each concentration and each assay was independently repeated at least 3 times. The concentrations used for the cytotoxicity assays were 50, 25, 12.5, 6.25. and 3.125 μg/mL.
To check for cytotoxicity of the extracts and compounds against RAW264.7 mouse macrophage and 3T3 ccl-92 mouse fibroblast cell lines, the crystal violet cytotoxicity test was used according to the published protocol. In brief, RAW264.7 cells were seeded with a density of 2 × 10^4 cells/well in a 96-well plate and then incubated for 18–24 h. The following day the compounds/extracts were added and then incubated for 24 h before the media was aspirated and the cells washed twice in a gentle stream of water. After removing the water, 50 µL of 0.5% crystal violet staining solution were added and the cells were incubated for 20 min at room temperature. The plate was then washed 4 times with water and air dried for 2 h. Finally, 200 μL of methanol was added to each well and incubated for 20 min at room temperature on a rocker. This was followed by measuring the optical density at 570 nm with a plate reader Anthos Zenyth 200rt (Anthos Labtec Instruments, Heerhugowaard, The Netherlands). Chlorambucil was used as a positive control.

Compound: O=C1Nc2ccccc2C1=O [isatin]
- inhibition at 40 µg/mL (NFκB translocation): 45.7%
- concentration at which TNFα was inhibited (TNFα): 100 µM
- concentrations significantly inhibiting NO production (NO production): 10 to 100 µM
- reduction of NO production ([1]; 50 µg/mL (maximum test concentration), relative to DMSO control): 34%
- IC50 ([1]; RAW264.7, LPS-stimulated RAW264.7, max test concentration 50 µg/mL, read-out: NO IC50): ~340 µM
- IC50 ([1]; RAW264.7, predicted, above maximum test concentration 50 μg/mL, read-out: predicted NO IC50): 63.3 µg/mL and 430 µM
- lowest concentration with significant inhibition of TNFα (TNFα production): 0.5 µM
- IC50 (TNFα production; RAW264.7, LPS-stimulated RAW264.7, max test concentration 50 µg/mL, read-out: TNFα IC50): > 340 µM
- IC50 (TNFα production; RAW264.7, LPS-stimulated RAW264.7, read-out: TNFα IC50): > 50 µg/mL
- IC50 (TNFα production; RAW264.7, predicted, above the maximum test concentration, read-out: predicted TNFα IC50): 717 µM
- Cytotoxicity 3T3 ccl-92 (test concentration which causes toxicity) [2]: NA (not active at maximum test concentration 50 µg/mL)
